Measurements: patent US20250188123A1, “PROTEASE INHIBITORS” (Regents of the University of Minnesota, priority 2022, published 2025)

Tested on: cultured rat hippocampal neurons expressing GFP-tagged P301S tau
Test: Accumulation of P301S tau in dendritic spines of cultured hippocampal neurons
Assay type: cell-based
Conditions: 10 μM for 3 days
Excerpt: The disproportionate accumulation in dendritic spines of mutant tau linked to FTDP-17 depends upon tau-truncation by Casp2 (Zhao X, et al., Nat Med., 2016, 22, 1268-76). […] The P301S tau mutation linked to FTDP-17 (Bugiani O, et al., J Neuropathol Exp Neurol., 1999, 58, 667-677; and Lossos A, et al., J Neurol., 2003, 250, 733-740) was examined to determine whether Compound 1 could prevent the accumulation of tau in dendritic spines. Dissociated hippocampal neurons from postnatal day 0-1 rat pups were cultured. After 5-7 days in vitro (DIV), the neurons were co-transfected with plasmids encoding DsRed (to label neuronal morphology) and GFP-tagged wild-type or P301S mutant tau proteins (FIG. 2A), as previously described (Hoover B R, et al., Neuron., 2010, 68:1067-1081). Neurons at 17-18 DIV were incubated with 10 μM Compound 1 for 3 days and live neurons were imaged at 20-21 DIV.
For all cultured hippocampal neuron studies all human tau and DsRed constructs were expressed in the pRK5 vector and driven by the cytomegalovirus promoter (Clontech Inc.). Human tau proteins were N-terminally fused to enhance GFP (eGFP). The wild-type, native human tau construct encoded human four-repeat tau lacking the transcriptional-variant N-terminal sequences (0N4R) and contained exons 1, 4, 5, 7, 9-13, 14, and intron 13 (RRID: Addgene_46904). […]

## Cc1ccc2c(c1)CCN(C(=O)[C@@H](NC(=O)[C@H](CCCC(=O)O)NC(=O)C1Cc3ccccc3N1)C(C)C)[C@@H]2C(=O)N[C@H](C#N)CC(=O)O (stereo partly drawn) [Compound 1, (8)-6-(((S)-1-((8)-1-(((S)-2-carboxy-1-cyanoethyl)carbamoyl)-6-methyl-3,4-dihydroisoquinolin-2(1H)-yl)-3-methyl-1-oxobutan-2-yl)amino)-5-((S)-indoline-2-carboxamido)-6-oxohexanoic acid]
Compared with untreated wild-type and P301S tau groups
  density of dendritic spines: no significant differences
Neurons expressing P301S tau, untreated P301S 75.5%, wild-type tau 21.9%
  percentage of dendritic spines containing GFP-tagged tau: 24.8%
